Several values for one entry are separate records, joined by “and”; a condition that tells them apart may be missing. Equal values may be shown once. Numbers after ± are expanded uncertainties.
How the values were obtained:
[1] = for vapor or sublimation pressure: Transpiration method; for Triple point temperature: DSC
[2] = Molar enthalpy of transition or fusion; details: Crystal; DSC

CC(=O)C12CC3CC(CC(C3)C1)C2 [1-adamantyl methyl ketone]
[1]
Details | vapor or sublimation pressure
291.6 K, Crystal | 0.00076 ± 5e-05 kPa
293.7 K, Crystal | 0.00099 ± 7e-05 kPa
296.5 K, Crystal | 0.00136 ± 0.0001 kPa
298.4 K, Crystal | 0.00174 ± 0.00013 kPa
303.3 K, Crystal | 0.00299 ± 0.0002 kPa
308.2 K, Crystal | 0.00505 ± 0.00033 kPa
308.4 K, Crystal | 0.00506 ± 0.00033 kPa
313.2 K, Crystal | 0.0085 ± 0.00059 kPa
316.2 K, Crystal | 0.01174 ± 0.00079 kPa
318.2 K, Crystal | 0.01406 ± 0.00094 kPa
318.7 K, Crystal | 0.01511 ± 0.001 kPa
320.3 K, Crystal | 0.01713 ± 0.0011 kPa
323.3 K, Crystal | 0.02368 ± 0.0016 kPa
331.3 K, Liquid | 0.0399 ± 0.0025 kPa and 0.0404 ± 0.0025 kPa
333.2 K, Liquid | 0.04637 ± 0.003 kPa and 0.0468 ± 0.003 kPa
335.2 K, Liquid | 0.0516 ± 0.0032 kPa
338.2 K, Liquid | 0.0633 ± 0.004 kPa
341.2 K, Liquid | 0.0767 ± 0.0048 kPa
343.1 K, Liquid | 0.08701 ± 0.0055 kPa
346.2 K, Liquid | 0.1025 ± 0.0065 kPa
348.1 K, Liquid | 0.1221 ± 0.0077 kPa
348.3 K, Liquid | 0.1231 ± 0.0077 kPa
351.7 K, Liquid | 0.1433 ± 0.0097 kPa
352.1 K, Liquid | 0.1514 ± 0.0095 kPa
353.1 K, Liquid | 0.1567 ± 0.0098 kPa
355.5 K, Liquid | 0.1853 ± 0.012 kPa
356 K, Liquid | 0.1912 ± 0.012 kPa
358.1 K, Liquid | 0.2111 ± 0.013 kPa
358.2 K, Liquid | 0.2186 ± 0.014 kPa
360.4 K, Liquid | 0.2451 ± 0.015 kPa
363.1 K, Liquid | 0.2835 ± 0.018 kPa

Details | Triple point temperature [K]
[1], Crystal | 325.2 ± 1.2

Details | Molar enthalpy of transition or fusion [kJ/mol]
[2] | 19.5 ± 0.7

O=C1C2CC3CC(C2)CC1C3 [2-adamantanone]
[1], Crystal
Details | vapor or sublimation pressure [kPa]
293.5 K | 0.00109 ± 8e-05
296.4 K | 0.00142 ± 0.0001
297.4 K | 0.00156 ± 0.0001
298.5 K | 0.00172 ± 0.00012
300.4 K | 0.00199 ± 0.00013
303.4 K | 0.00258 ± 0.00017
306.4 K | 0.00341 ± 0.00023
308.4 K | 0.00417 ± 0.00028
313.4 K | 0.00608 ± 0.00043
318.4 K | 0.00903 ± 0.00061
323.4 K | 0.01275 ± 0.00084
328.4 K | 0.01873 ± 0.0012
333.4 K | 0.02597 ± 0.0017
338.5 K | 0.03782 ± 0.0024
343.3 K | 0.05432 ± 0.0034
348.4 K | 0.07513 ± 0.0047
353.3 K | 0.09857 ± 0.0062
358.3 K | 0.1302 ± 0.0082
363.4 K | 0.1815 ± 0.011
368.4 K | 0.2462 ± 0.015
373.4 K | 0.3099 ± 0.019

O=C(O)C1C2CC3CC(C2)CC1C3 (stereo not given) [adamantane-2-carboxylic acid]
[1], Crystal
Details | vapor or sublimation pressure
344.3 K | 0.00066 ± 5e-05 kPa
347.3 K | 0.00087 ± 7e-05 kPa
350.3 K | 0.00113 ± 8e-05 kPa
353.4 K | 0.00157 ± 0.0001 kPa
355.4 K | 0.0018 ± 0.00012 kPa
356.4 K | 0.00212 ± 0.00015 kPa
358.4 K | 0.00246 ± 0.00017 kPa
360.4 K | 0.00307 ± 0.0002 kPa
362.4 K | 0.00345 ± 0.00023 kPa
364.4 K | 0.00436 ± 0.00028 kPa
365.8 K | 0.0048 ± 0.00032 kPa
368.3 K | 0.00577 ± 0.0004 kPa
368.4 K | 0.00595 ± 0.00041 kPa
369.4 K | 0.00628 ± 0.00044 kPa
370.4 K | 0.00725 ± 0.00051 kPa
371.4 K | 0.00757 ± 0.00052 kPa
373.4 K | 0.00923 ± 0.00063 kPa
374.4 K | 0.00992 ± 0.00067 kPa
376.4 K | 0.01193 ± 0.00079 kPa
377.4 K | 0.01257 ± 0.00083 kPa and 0.01301 ± 0.00086 kPa
378.4 K | 0.01382 ± 0.00091 kPa
380.3 K | 0.01584 ± 0.001 kPa
381.3 K | 0.01701 ± 0.0011 kPa
383.4 K | 0.02003 ± 0.0013 kPa
386.4 K | 0.02497 ± 0.0016 kPa

Details | Triple point temperature [K]
[1], Crystal | 416.3 ± 1.2

Details | Molar enthalpy of transition or fusion [kJ/mol]
[2] | 9.8 ± 1

O=C(O)C12CC3CC(CC(C3)C1)C2 [tricyclo[3.3.1.1(3,7)]decane-1-carboxylic acid]
[1], Crystal
Details | vapor or sublimation pressure [kPa]
345.2 K | 0.0009 ± 7e-05
348.2 K | 0.00122 ± 9e-05
353.2 K | 0.00193 ± 0.00013
356.7 K | 0.00266 ± 0.00018
360.2 K | 0.00382 ± 0.00025
362.2 K | 0.00453 ± 0.0003
365.2 K | 0.00575 ± 0.00037
367.7 K | 0.00692 ± 0.00049
370.2 K | 0.00896 ± 0.00061
370.3 K | 0.00895 ± 0.00061
373.2 K | 0.01102 ± 0.00073
375.2 K | 0.01263 ± 0.00084
377.3 K | 0.01524 ± 0.001
377.7 K | 0.01587 ± 0.0011
380.2 K | 0.01902 ± 0.0013
382.2 K | 0.02303 ± 0.0015
385.3 K | 0.02961 ± 0.0019

Details | Triple point temperature [K]
[1], Crystal | 449.1 ± 1.2

Details | Molar enthalpy of transition or fusion [kJ/mol]
[2] | 17.6 ± 0.7
